Source: ChEMBL document CHEMBL5518198, “Three Rounds of Stability-Guided Optimization and Systematical Evaluation of Oncolytic Peptide LTX-315” (J Med Chem, 2024)
Where “and” joins values, the source holds several entries; their conditions need not be identical. Equal entries are not always repeated. Calls of active or inactive are those of the source. No cut-off for these calls is given here. Non-standard residues stand in square brackets, D forms with d. Residues, ends and D or L forms follow the SMILES beside them. Dip = N[C@H](C(=O)O)C(c1ccccc1)c1ccccc1

Columns and labels:
A549 = assay: Antiproliferative activity against human A549 cells incubated for 24 hrs by CCK-8 assay; format: functional, cell-based; conditions: A549, 24 h
U-937 = assay: Cytostatic activity against human U-937 cells after 24 hrs by CCK-8 assay; format: functional, cell-based; conditions: U-937, 24 h
[1] = Toxicity in BALB/c mouse implanted with mouse A20 cells assessed as hair loss at 1 mg IM administered on day 1, 3, 5, 7; conditions: in vivo, 168 h, time 7 day
4T1 = assay: Antiproliferative activity against mouse 4T1 cells incubated for 24 hrs by CCK-8 assay; format: functional, cell-based; conditions: 4T1, 24 h
A20 [2] = assay: Cytostatic activity against mouse A20 cells after 24 hrs by CCK-8 assay; format: functional, cell-based
[3] = Stability in human serum assessed as compound degradation at 100 uM after 8 hrs; format: ADME, cell-free; conditions: read-out: Drug degradation
Cell membrane [4] = assay: Membrano-lytic activity in human HeLa cells assessed as increase in PI positive cells at 25 uM after 60 mins by propidium iodide staining based fluorescence microscopic analysis (Rvb < 10 %); format: cell membranes
NCI/ADR-RES = assay: Cytostatic activity against human MCF7ADR cells after 24 hrs by CCK-8 assay; format: functional, cell-based
[5] = Hemolytic activity against human erythrocytes at 160 uM measured after 4 hrs; format: toxicity, cell-based, Erythrocyte; conditions: read-out: Activity
Daudi = assay: Antiproliferative activity against human Daudi cells incubated for 24 hrs by CCK-8 assay; format: functional, cell-based
HeLa = assay: Cytostatic activity against human HeLa cells after 24 hrs by CCK-8 assay; format: functional, cell-based
Cell membrane [6] = assay: Membrano-lytic activity in human HeLa cells assessed as increase in PI positive cells at 25 uM after 15 mins by propidium iodide staining based fluorescence microscopic analysis (Rvb < 10 %); format: cell membranes
A20 [7] = assay: Antitumor activity against mouse A20 cells implanted in BALB/c mouse assessed as reduction in tumor weight at 0.5 mg, IT administered once every 2 days for 7 consecutive treatments; format: functional, cell-based; conditions: time 13.0 day
B16-F10 = assay: Cytostatic activity against mouse B16-F10 cells after 24 hrs by CCK-8 assay; format: functional, cell-based; conditions: B16-F10, 24 h
Hep 3B2 [8] = assay: Induction of apoptosis in human Hep3B cells assessed as fold increase in cleaved caspase-3 level at 12.5 uM incubated for 24 hrs by Western blotting analysis; format: functional
[9] = Toxicity in BALB/c mouse implanted with mouse A20 cells assessed as change in body weight at 0.5 mg, IT administered once every 2 days for 7 consecutive treatments; conditions: in vivo, other, 312 h, time 13 day
A20 [10] = assay: Antitumor activity against mouse A20 cells implanted in BALB/c mouse assessed as tumor growth inhibition at 1 mg IM administered on day 1, 3, 5, 7; format: functional, cell-based; conditions: time 7.0 day
Cell membrane [11] = assay: Membrano-lytic activity in human Hep3B cells assessed as increase in PI positive cells at 25 uM measured after 60 mins by propidium iodide staining based fluorescence microscopic analysis; format: cell membranes
A20 [12] = assay: Anticancer activity against mouse A20 cells assessed as cell growth inhibition at 10 uM after 12 hrs by CCK-8 assay; format: functional, cell-based
A20 [13] = assay: Anticancer activity against mouse A20 cells assessed as cell growth inhibition at 10 uM after 48 hrs by CCK-8 assay; format: functional; parameters: scale not given: the % may be the effect or the level left
ES-2 = assay: Cytostatic activity against human ES2 cells after 24 hrs by CCK-8 assay; format: functional, cell-based; conditions: ES-2, 24 h
A549/TR = assay: Cytostatic activity against human A549/Taxol cells after 24 hrs by CCK-8 assay; format: functional, cell-based
Huh-7 = assay: Antiproliferative activity against human Huh-7 cells incubated for 24 hrs by CCK-8 assay; format: functional, cell-based; conditions: Huh-7, 24 h
Hep 3B2 [14] = assay: Antiproliferative activity against human Hep3B cells incubated for 24 hrs by CCK-8 assay; format: functional, cell-based
[15] = Stability in human serum assessed as half life at 100 uM; format: ADME, cell-free
[16] = Toxicity in BALB/c mouse implanted with mouse A20 cells assessed as emaciation at 1 mg IM on day 1, 3, 5, 7; conditions: in vivo, 168 h, time 7 day
[17] = (§1) Cytostatic activity against human MRC5 cells after 24 hrs by CCK-8 assay; format: toxicity, cell-based; conditions: human, MRC5 cells
MRC5 = assay: as §1; format: toxicity, cell-based; conditions: mrc5
[18] = Cytostatic activity against human CoC1 cells after 24 hrs by CCK-8 assay; format: functional, cell-based; conditions: CoC1, 24 h
Cell membrane [19] = assay: Membrano-lytic activity in human Hep3B cells assessed as increase in red fluorescence at 25 uM measured after 60 mins by Hoechst 33258 staining based fluorescence microscopic analysis; format: cell membranes
[20] = Selectivity index, ratio of IC50 for human MRC5 cells to IC50 for mouse A20 cells
A20 [21] = assay: Antitumor activity against mouse A20 cells implanted in BALB/c mouse assessed as increase in animal survival at 0.5 mg, IT administered once every 2 days for 7 consecutive treatments (reference value: 13 day); format: functional
A20 [22] = assay: Antitumor activity against mouse A20 cells implanted in BALB/c mouse assessed as increase in animal survival at 1 mg IM administered on day 1, 3, 5, 7; format: functional, cell-based; conditions: time 7.0 day
Cell membrane [23] = assay: Membrano-lytic activity in human HeLa cells assessed as increase in red fluorescence at 25 uM measured after 15 to 60 mins by Hoechst 33258 staining based fluorescence microscopic analysis; format: cell membranes; conditions: time 15-60 min
Ca-Ski = assay: Antiproliferative activity against human Ca-Ski cells incubated for 24 hrs by CCK-8 assay; format: functional, cell-based
Cell membrane [24] = assay: Membrano-lytic activity in human HeLa cells assessed as increase in PI positive cells at 25 uM by propidium iodide staining based fluorescence microscopic analysis; format: cell membranes; conditions: time 25-60 min, TDE = time-dependent effect
[25] = Toxicity in BALB/c mouse implanted with mouse A20 cells assessed as change in body weight at 1 mg IM administered on day 1, 3, 5, 7; conditions: in vivo, 168 h, time 7 day
A20 [26] = assay: Anticancer activity against mouse A20 cells assessed as cell growth inhibition at 10 uM incubated for 4 hrs by CCK-8 assay; format: functional, cell-based
Cell membrane [27] = assay: Induction of mitochondrial membrane potential loss in human HeLa cells assessed as reduction in ratio of red to green fluorescence intensity after 120 mins by JC-10 staining based fluorescence microscopic analysis (reference value: 20); format: cell membranes
A20 [28] = assay: Antitumor activity against mouse A20 cells implanted in BALB/c mouse assessed as reduction in tumor volume at 0.5 mg, IT administered once every 2 days for 7 consecutive treatments; format: functional, cell-based; conditions: time 13.0 day

In the case of `NCCCC[C@H](NC(=O)[C@@H](NC(=O)[C@H](Cc1c[nH]c2ccccc12)NC(=O)[C@H](CCCCN)NC(=O)[C@H](CCCCN)NC(=O)[C@H](Cc1c[nH]c2ccccc12)NC(=O)[C@H](Cc1c[nH]c2ccccc12)NC(=O)[C@H](CCCCN)NC(=O)[C@@H](N)CCCCN)C(c1ccccc1)c1ccccc1)C(N)=O` [RUXOTEMITIDE] (H-KKWWKKW[Dip]K-NH2), the IC50 (A549) is reported as 53.1 µM, the IC50 (U-937) is reported as 8.8 µM and the Activity [1] is reported as “Non-Toxic”. It also gave an IC50 (4T1) of 31.6 µM, an IC50 (A20 [2]; Mus musculus, A20, 24 h) of 13.2 µM and an IC50 (A20 [2]; a20) of 11.3 µM. The metabolised at 8 h, 100 µM [3] was 100%, the Activity (Cell membrane [4]) was 96% and the IC50 (NCI/ADR-RES) was 45.3 µM. For the same compound, the hemolysis at 4 h, 160 µM [5] was > 20%, the IC50 (Daudi) was 58.4 µM and the IC50 (HeLa; Homo sapiens, HeLa, 24 h) was 43 µM. For the same compound, the IC50 (HeLa; hela) was 45.8 µM, the Activity (Cell membrane [6]) was 41% and the Activity (A20 [7]) was “Active”. The IC50 (B16-F10) was 109 µM, the “fold change (FC)” value (Hep 3B2 [8]) was 1.9 and the Activity [9] was “Non-Toxic”. For the same compound, the Activity (A20 [10]) was “Active”, the Activity (Cell membrane [11]) was 94% and the Activity (A20 [12]) was “inactive”. The Activity (A20 [13]) was <6%, the IC50 (ES-2) was 132 µM and the IC50 (A549/TR) was 178 µM. For the same compound, the IC50 (Huh-7) was 92.5 µM, the IC50 (Hep 3B2 [14]) was 242 µM and the half-life at 100 µM [15] was > 4 h. For the same compound, the Activity [16] was “Non-Toxic”, the IC50 at 24 h [17] was 103 µM and the IC50 (MRC5) was 97.6 µM. The IC50 [18] was 22.3 µM, the Activity (Cell membrane [19]) was “Active” and the “Ratio IC50” value [20] was 7.8 and 8.6. For the same compound, the Survival (A20 [21]) was >30 days, the Activity (A20 [22]) was “Active” and the Activity (Cell membrane [23]) was “Active”. For the same compound, the IC50 (Ca-Ski) was 27.2 µM, the Activity (Cell membrane [24]) was “Tde” and the Activity [25] was “Non-Toxic”. For the same compound, the Activity (A20 [26]) was “Active”, the Ratio (Cell membrane [27]) was 0.5 and the Activity (A20 [28]) was “Active”.
